{"source": "patent US11224619B2", "about": "“Formulations and methods for treatment of inflammatory skin diseases” (Zemtsov Enterprises, LLC, priority 2012, dated 2022)", "tested_on": "atopic dermatitis / plaque psoriasis", "assay": "Response of individual study subjects to earlier therapy", "data": [{"molecule": "C[C@H]1C[C@H]2[C@@H]3CCC4=CC(=O)C=C[C@]4(C)[C@@]3(F)[C@@H](O)C[C@]2(C)[C@@]1(O)C(=O)CCl", "note": "[clobetasol]", "values": [{"measurement": "Response to earlier therapy", "setting": "Subject #2, chronic atopic dermatitis on the neck", "result": "unresponsive"}]}, {"molecule": "CC(=O)OCC(=O)[C@@]12OC(C)(C)O[C@@H]1C[C@H]1[C@@H]3C[C@H](F)C4=CC(=O)C=C[C@]4(C)[C@@]3(F)[C@@H](O)C[C@@]12C", "note": "[fluocinonide]", "values": [{"measurement": "Response to earlier therapy", "setting": "Subject #5, persistent psoriatic lesions on the abdomen", "result": "unresponsive"}]}, {"molecule": "etanercept", "values": [{"measurement": "Disease control under ongoing therapy", "setting": "Subject #5, chronic severe plaque psoriasis, subcutaneous injections", "result": "reasonable control"}]}]}
